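A five-concentration, 48-hour dose response in 96-well plates underlies each endpoint, interpolated linearly between surrounding concentrations. At the GI50, growth is halved.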 Calls of active or inactive are those of the source. Cut-off read from the data, not from the text of the source: active = GI50 up to about 1.1 µM and inactive = higher.
Legend:
Assay in all cases: DTP human tumour cell line panel, 48 h
SN12C = tested on: SN12C
NCI-H460 = tested on: NCI-H460
CCRF-CEM = tested on: CCRF-CEM
Hs-578T = tested on: Hs-578T
MDA-MB-231 = tested on: MDA-MB-231
Malme-3M = tested on: Malme-3M
NCI-H226 = tested on: NCI-H226
786-0 = tested on: 786-0
HOP-92 = tested on: HOP-92
OVCAR-5 = tested on: OVCAR-5
UACC-62 = tested on: UACC-62
HCT-116 = tested on: HCT-116
MDA-N = tested on: MDA-N
NCI/ADR-RES = tested on: NCI/ADR-RES
MCF7 = tested on: MCF7
T47D = tested on: T47D
SK-OV-3 = tested on: SK-OV-3
PC-3 = tested on: PC-3
NCI-H522 = tested on: NCI-H522
COLO 205 = tested on: COLO 205
LOX IMVI = tested on: LOX IMVI
ACHN = tested on: ACHN
IGROV-1 = tested on: IGROV-1
OVCAR-8 = tested on: OVCAR-8
HCT-15 = tested on: HCT-15
TK-10 = tested on: TK-10
RPMI-8226 = tested on: RPMI-8226
U-251 = tested on: U-251
SK-MEL-5 = tested on: SK-MEL-5
SF-295 = tested on: SF-295
SNB-19 = tested on: SNB-19
HOP-62 = tested on: HOP-62
OVCAR-3 = tested on: OVCAR-3
UO-31 = tested on: UO-31
MOLT-4 = tested on: MOLT-4
SK-MEL-2 = tested on: SK-MEL-2
NCI-H23 = tested on: NCI-H23
SK-MEL-28 = tested on: SK-MEL-28
CAKI-1 = tested on: CAKI-1
HT-29 = tested on: HT-29
HCC 2998 = tested on: HCC 2998
HL-60 = tested on: HL-60
SF-539 = tested on: SF-539
SW-620 = tested on: SW-620
UACC-257 = tested on: UACC-257
EKVX = tested on: EKVX
A498 = tested on: A498
MDA-MB-435 = tested on: MDA-MB-435
RXF 393 = tested on: RXF 393
OVCAR-4 = tested on: OVCAR-4
SNB-75 = tested on: SNB-75
K562 = tested on: K562
A549 = tested on: A549
KM12 = tested on: KM12
M14 = tested on: M14
DU-145 = tested on: DU-145
SF-268 = tested on: SF-268
SR = tested on: SR

For CC1(C)SCc2nc3ccccc3n21, the GI50 (SN12C) was > 100 µM (inactive), the GI50 (NCI-H460) was > 100 µM (inactive) and the GI50 (CCRF-CEM) was > 100 µM (inactive). The GI50 (Hs-578T) was > 100 µM (inactive), the GI50 (MDA-MB-231) was > 100 µM (inactive) and the GI50 (Malme-3M) was > 100 µM (inactive). For the same compound, the GI50 (NCI-H226) was 89.9 µM (inactive), the GI50 (786-0) was > 100 µM (inactive) and the GI50 (HOP-92) was > 100 µM (inactive). For the same compound, the GI50 (OVCAR-5) was > 100 µM (inactive), the GI50 (UACC-62) was > 100 µM (inactive) and the GI50 (HCT-116) was > 100 µM (inactive). The GI50 (MDA-N) was > 100 µM (inactive), the GI50 (NCI/ADR-RES) was > 100 µM (inactive) and the GI50 (MCF7) was > 100 µM (inactive). The GI50 (T47D) was > 100 µM (inactive), the GI50 (SK-OV-3) was > 100 µM (inactive) and the GI50 (PC-3) was > 100 µM (inactive). For the same compound, the GI50 (NCI-H522) was > 100 µM (inactive), the GI50 (COLO 205) was > 100 µM (inactive) and the GI50 (LOX IMVI) was > 100 µM (inactive). The GI50 (ACHN) was > 100 µM (inactive), the GI50 (IGROV-1) was > 100 µM (inactive) and the GI50 (OVCAR-8) was > 100 µM (inactive). For the same compound, the GI50 (HCT-15) was over 100 µM, the GI50 (TK-10) was > 100 µM (inactive) and the GI50 (RPMI-8226) was > 100 µM (inactive). The GI50 (U-251) was > 100 µM (inactive), the GI50 (SK-MEL-5) was > 100 µM (inactive) and the GI50 (SF-295) was > 100 µM (inactive). For the same compound, the GI50 (SNB-19) was > 100 µM (inactive), the GI50 (HOP-62) was > 100 µM (inactive) and the GI50 (OVCAR-3) was > 100 µM (inactive). The GI50 (UO-31) was > 100 µM (inactive), the GI50 (MOLT-4) was > 100 µM (inactive) and the GI50 (SK-MEL-2) was > 100 µM (inactive). The GI50 (NCI-H23) was > 100 µM (inactive), the GI50 (SK-MEL-28) was > 100 µM (inactive) and the GI50 (CAKI-1) was > 100 µM (inactive). For the same compound, the GI50 (HT-29) was > 100 µM (inactive), the GI50 (HCC 2998) was > 100 µM (inactive) and the GI50 (HL-60) was > 100 µM (inactive). For the same compound, the GI50 (SF-539) was > 100 µM (inactive), the GI50 (SW-620) was > 100 µM (inactive) and the GI50 (UACC-257) was > 100 µM (inactive). The GI50 (EKVX) was > 100 µM (inactive), the GI50 (A498) was > 100 µM (inactive) and the GI50 (MDA-MB-435) was > 100 µM (inactive). For the same compound, the GI50 (RXF 393) was > 100 µM (inactive), the GI50 (OVCAR-4) was > 100 µM (inactive) and the GI50 (SNB-75) was 0.0119 µM (active). For the same compound, the GI50 (K562) was > 100 µM (inactive), the GI50 (A549) was > 100 µM (inactive) and the GI50 (KM12) was > 100 µM (inactive). The GI50 (M14) was > 100 µM (inactive), the GI50 (DU-145) was > 100 µM (inactive) and the GI50 (SF-268) was > 100 µM (inactive).

In the case of c1ccc(CSC(SCc2ccccc2)c2ccc3c(c2)OCO3)cc1, the GI50 (SN12C) is reported as > 10 µM (inactive), the GI50 (NCI-H460) is reported as > 10 µM (inactive) and the GI50 (CCRF-CEM) is reported as > 10 µM (inactive). The GI50 (Hs-578T) was > 10 µM (inactive), the GI50 (MDA-MB-231) was > 10 µM (inactive) and the GI50 (Malme-3M) was > 10 µM (inactive). The GI50 (NCI-H226) was > 10 µM (inactive), the GI50 (786-0) was > 10 µM (inactive) and the GI50 (HOP-92) was > 10 µM (inactive). For the same compound, the GI50 (UACC-62) was > 10 µM (inactive), the GI50 (HCT-116) was > 10 µM (inactive) and the GI50 (MDA-N) was > 10 µM (inactive). The GI50 (NCI/ADR-RES) was > 10 µM (inactive), the GI50 (MCF7) was > 10 µM (inactive) and the GI50 (T47D) was > 10 µM (inactive). For the same compound, the GI50 (SK-OV-3) was 6.44 µM (inactive), the GI50 (PC-3) was > 10 µM (inactive) and the GI50 (NCI-H522) was > 10 µM (inactive). The GI50 (COLO 205) was > 10 µM (inactive), the GI50 (LOX IMVI) was > 10 µM (inactive) and the GI50 (ACHN) was > 10 µM (inactive). For the same compound, the GI50 (IGROV-1) was > 10 µM (inactive), the GI50 (OVCAR-8) was > 10 µM (inactive) and the GI50 (HCT-15) was over 10 µM. The GI50 (TK-10) was > 10 µM (inactive), the GI50 (RPMI-8226) was > 10 µM (inactive) and the GI50 (U-251) was > 10 µM (inactive). The GI50 (SK-MEL-5) was > 10 µM (inactive), the GI50 (SF-295) was > 10 µM (inactive) and the GI50 (SNB-19) was > 10 µM (inactive). For the same compound, the GI50 (HOP-62) was > 10 µM (inactive), the GI50 (OVCAR-3) was > 10 µM (inactive) and the GI50 (UO-31) was > 10 µM (inactive). The GI50 (MOLT-4) was > 10 µM (inactive), the GI50 (SK-MEL-2) was > 10 µM (inactive) and the GI50 (NCI-H23) was > 10 µM (inactive). For the same compound, the GI50 (SK-MEL-28) was > 10 µM (inactive), the GI50 (CAKI-1) was > 10 µM (inactive) and the GI50 (HT-29) was > 10 µM (inactive). The GI50 (HCC 2998) was > 10 µM (inactive), the GI50 (HL-60) was > 10 µM (inactive) and the GI50 (SF-539) was > 10 µM (inactive). The GI50 (SW-620) was > 10 µM (inactive), the GI50 (UACC-257) was > 10 µM (inactive) and the GI50 (EKVX) was > 10 µM (inactive). For the same compound, the GI50 (A498) was > 10 µM (inactive), the GI50 (RXF 393) was > 10 µM (inactive) and the GI50 (OVCAR-4) was > 10 µM (inactive). For the same compound, the GI50 (SNB-75) was > 10 µM (inactive), the GI50 (K562) was > 10 µM (inactive) and the GI50 (A549) was > 10 µM (inactive). The GI50 (KM12) was > 10 µM (inactive), the GI50 (M14) was > 10 µM (inactive) and the GI50 (DU-145) was > 10 µM (inactive). The GI50 (SF-268) was > 10 µM (inactive).

COc1cc2c(c(OC)c1OC)-c1ccc(OC)c(=O)cc1C(NC(=O)CCCCCNc1ccc(N=[N+]=[N-])cc1[N+](=O)[O-])CC2 (stereo not drawn) was tested, and the GI50 (SN12C) was < 0.01 µM (active), the GI50 (NCI-H460) was < 0.01 µM (active) and the GI50 (CCRF-CEM) was < 0.01 µM (active). For the same compound, the GI50 (Hs-578T) was < 0.01 µM (active), the GI50 (MDA-MB-231) was < 0.01 µM (active) and the GI50 (Malme-3M) was < 0.01 µM (active). The GI50 (NCI-H226) was < 0.01 µM (active), the GI50 (786-0) was < 0.01 µM (active) and the GI50 (OVCAR-5) was < 0.01 µM (active). The GI50 (UACC-62) was < 0.01 µM (active), the GI50 (HCT-116) was < 0.01 µM (active) and the GI50 (MDA-N) was < 0.01 µM (active). The GI50 (NCI/ADR-RES) was 0.422 µM (active), the GI50 (MCF7) was < 0.01 µM (active) and the GI50 (T47D) was 20.5 µM (inactive). The GI50 (SK-OV-3) was < 0.01 µM (active), the GI50 (PC-3) was < 0.01 µM (active) and the GI50 (NCI-H522) was < 0.01 µM (active). The GI50 (COLO 205) was < 0.01 µM (active), the GI50 (LOX IMVI) was < 0.01 µM (active) and the GI50 (ACHN) was 0.0271 µM (active). The GI50 (IGROV-1) was < 0.01 µM (active), the GI50 (OVCAR-8) was < 0.01 µM (active) and the GI50 (HCT-15) was 0.0418 µM. For the same compound, the GI50 (TK-10) was 0.0426 µM (active), the GI50 (RPMI-8226) was < 0.01 µM (active) and the GI50 (U-251) was < 0.01 µM (active). For the same compound, the GI50 (SK-MEL-5) was < 0.01 µM (active), the GI50 (SF-295) was < 0.0118 µM (active) and the GI50 (SNB-19) was < 0.01 µM (active). The GI50 (HOP-62) was < 0.01 µM (active), the GI50 (OVCAR-3) was < 0.01 µM (active) and the GI50 (UO-31) was 1.47 µM (inactive). The GI50 (MOLT-4) was < 0.01 µM (active), the GI50 (SK-MEL-2) was < 0.01 µM (active) and the GI50 (NCI-H23) was < 0.01 µM (active). For the same compound, the GI50 (SR) was < 0.01 µM (active), the GI50 (SK-MEL-28) was < 0.01 µM (active) and the GI50 (CAKI-1) was 0.299 µM (active). For the same compound, the GI50 (HT-29) was < 0.01 µM (active), the GI50 (HCC 2998) was < 0.01 µM (active) and the GI50 (HL-60) was < 0.01 µM (active). For the same compound, the GI50 (SF-539) was < 0.01 µM (active), the GI50 (SW-620) was < 0.01 µM (active) and the GI50 (EKVX) was < 0.0136 µM (active). For the same compound, the GI50 (A498) was < 0.01 µM (active), the GI50 (MDA-MB-435) was < 0.01 µM (active) and the GI50 (RXF 393) was < 0.01 µM (active). For the same compound, the GI50 (OVCAR-4) was 1.56 µM (inactive), the GI50 (SNB-75) was 0.246 µM (active) and the GI50 (K562) was < 0.01 µM (active). The GI50 (A549) was < 0.01 µM (active), the GI50 (KM12) was < 0.01 µM (active) and the GI50 (M14) was < 0.01 µM (active). For the same compound, the GI50 (DU-145) was < 0.01 µM (active) and the GI50 (SF-268) was < 0.01 µM (active).
